Source: patent US9856478B2, “Method for selectively inhibiting ACAT1 in the treatment of obesity, metabolic syndrome, and atherosclerosis” (Trustees of Dartmouth College, priority 2013, dated 2018)

Experiments:
blood myeloid cells = assay: Blood myeloid cells (CD11b+Gr1+) after 5-FU injection, flow cytometry; format: in vivo, mouse; conditions: 150 mg/kg single injection, six days post-injection
Procedure: It also had shown previously that global Acat1^−/− induces leukocytosis (Huang et al. 2013. Arterioscl. Thromb. Vasc. Biol. 33:2081-2087). Therefore, experiments were performed to compare the hematopoietic recovery of wild-type, global Acat1^−/−, and Acat1^−M/−M mice after injection of the myelo-suppressive agent 5-fluorouracil (5-FU; 150 mg/kg) (Lindner et al. 1960. Cancer Res. 20:497-502). Mice from all three genotypes (7-9 weeks of age) were administered a single 5-FU injection. After injection, blood myeloid cells (CD11b+Gr1+) isolated from these mice were monitored by flow cytometry. […] Six days post-injection, almost all of the myeloid cells in wild-type, Acat1^−/− and Acat1^−M/−M mice were depleted by 5-FU.

ACAT2 = conditions: cited from earlier work
[1] = tested on: cholesteryl ester synthesis in peritoneal macrophages; assay: 3H-oleate incorporation into cholesteryl esters in peritoneal macrophages; format: cell-based, mouse; conditions: 5 μM, 16 hours, agLDL, macrophages from wild-type or LyzCre+/+ mice
Procedure: Peritoneal macrophages were isolated as previously described (Sakashita et al. 2010. J. Lipid Res. 51:1263-1272), four days after injecting 1 ml of thioglycolate (TG) (3% wt/vol; Sigma Chemical Co.). Peritoneal leukocytes were isolated and incubated in 6-well culture dishes with 2 ml/well DMEM medium with 10% FBS at 37° C. for two hours. After washing with PBS two times, the firmly attached macrophages were used to measure ACAT1 mRNA and protein level.
Experiments were then performed to confirm that ACAT1 was specifically deleted in macrophages of the Acat1^−M/−M mouse. Peritoneal macrophages were isolated from Acat1^−M/−M and Acat1+^M/+M mice four days after thioglycolate injection. The cells were incubated with aggregated LDL (agLDL), an agent known to provide large amount of cholesterol to macrophages (Khoo et al. 1988. Arteriosclerosis 8:348-358), with or without an ACAT inhibitor at a saturating concentration (Compound F12511; at 5 μM) (Chang et al. 2000. J. Biol. Chem. 275:28083-28092), for 16 hours, followed by ^3H-oleate incorporation to measure the biosynthesis of labeled cholesteryl esters. […] Next, ACAT1 mRNA and protein content were measured in wild-type and Acat1^−M/−M macrophages. […] In wild-type mice, ACAT1 is abundantly expressed in the adrenal glands.

ACAT1 = conditions: cited from earlier work
hACAT-2 = target: T1, hACAT-2 (Homo sapiens, UniProt O75908); conditions: cited from earlier work
T1 sequence (O75908 1-522): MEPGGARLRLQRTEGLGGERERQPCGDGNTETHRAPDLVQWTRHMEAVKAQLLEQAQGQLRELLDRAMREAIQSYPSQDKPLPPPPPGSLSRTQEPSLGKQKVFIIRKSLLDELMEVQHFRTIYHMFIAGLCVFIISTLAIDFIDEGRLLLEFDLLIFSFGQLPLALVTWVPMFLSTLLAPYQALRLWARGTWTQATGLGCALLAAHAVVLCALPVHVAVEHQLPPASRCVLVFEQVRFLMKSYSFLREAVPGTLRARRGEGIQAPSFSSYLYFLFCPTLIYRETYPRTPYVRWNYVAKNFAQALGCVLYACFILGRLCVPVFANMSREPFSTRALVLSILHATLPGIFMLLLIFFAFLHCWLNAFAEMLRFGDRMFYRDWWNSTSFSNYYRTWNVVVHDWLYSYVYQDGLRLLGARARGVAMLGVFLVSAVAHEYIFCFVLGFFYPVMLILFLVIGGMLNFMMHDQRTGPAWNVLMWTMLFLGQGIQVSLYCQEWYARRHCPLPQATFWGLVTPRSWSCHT

mouse ACAT1 = assay: ACAT1 protein by western blot in transfected NIH-3T3 mouse fibroblasts; format: cell-based; conditions: NIH-3T3, rAAV vector transfection, 48 hours, GFP-positive cells
Text: NIH-3T3 mouse fibroblasts were transiently transfected with one of several rAAV vectors encoding EmGFP and microRNA (miR) #52, #53, #54 or #55. Forty-eight hours post-transfection, GFP-positive cells were harvested by FACS. GFP-positive cells were washed then lysed in 10% SDS and syringe homogenized. Twenty microgram of protein per sample was subjected to SDS-PAGE. After western blot analysis, bands were quantified with ImageJ. ACAT1 intensity was normalized to GAPDH as a loading control and expressed as relative intensity.
Four different siRNA molecules (#52-#55; Table 3) targeting the mouse Acat1 gene were inserted into an endogenous mouse microRNA (miR) scaffold using Invitrogen's RNAi design tool. The artificial miRs were ligated into the mammalian expression vector pcDNA6.2-GW/EmGFP-miR. […] The miRs were delivered to the cells using a standard cDNA transfection protocol.

## O=c1[nH]cc(F)c(=O)[nH]1 [5-FU, 5-fluorouracil]
Blood myeloid cells
  depletion of blood myeloid cells: almost all

## CC(C)c1cccc(C(C)C)c1NC(=O)CC(=O)C(Cc1ccccc1)Cc1ccc(O)cc1 (stereo not shown) [Compound 1B]
ACAT2
  IC50: 1.5 µM

## CC(C)c1cccc(C(C)C)c1NC(=O)CC(=O)C(Cc1ccccc1)Cc1ccc(OC(=O)CCCCCCN2CCCCCC2=O)cc1 (stereo not shown) [Compound 1C]
ACAT2
  IC50: 0.53 µM

## CCCCCCCCCCCCS[C@H](C(=O)Nc1cc(C)c(O)c(C)c1C)c1ccccc1 [Eflucimibe (F12511)]
[1]
  cholesteryl ester synthesis rate: drastically reduced
ACAT2
  IC50: 0.11 µM

## CCCCCCCC(=O)Nc1ccccc1-c1ccccc1 [compound 1]
ACAT2
  IC50: 230 µM

## CCCCCCCCC(=O)Nc1ccccc1-c1ccccc1 [compound 2]
ACAT2
  IC50: 414 µM

## CCCCCCCC(=O)Nc1cc(-c2ccccc2)nn1-c1ccccc1 [compound 13]
ACAT2
  IC50: 53 µM

## CCCCCCCCC(=O)Nc1cc(-c2ccccc2)nn1-c1ccccc1 [compound 14]
ACAT2
  IC50: 75 µM

## CCCCCCCCCNc1cc(-c2ccccc2)nn1-c1ccccc1 [compound 16]
ACAT2
  IC50: 97 µM

## CCOC(=O)OC(=O)OCC [diethyl pyrocarbonate]
ACAT1
  IC50: 44 µM
  greater activity on ACAT1 compared to ACAT-2: 4 fold
ACAT2
  IC50: 170 µM

## COc1ccc([C@@H](O)[C@@H](C)Oc2ccc([C@H]3O[C@H](c4ccc(O[C@H](C)[C@H](O)c5ccc6c(c5)OCO6)c(OC)c4)[C@H](C)[C@H]3C)cc2OC)cc1OC [manassantin B]
hACAT-2; at 1 mM
  inhibition of hACAT-2: 32%

## miR Negative Control: negative control miR 5′-TACTGCGCGTGGAGACG-3′ (SEQ ID NO:17), matches no known vertebrate gene (chemistry not given here)
Mouse ACAT1
  Relative Intensity (ACAT1 normalized to GAPDH): 1.02

## saucerneol B
hACAT-2
  IC50: 124 µM
